Reference: US6696488B2, “(Hydroxyethyl)ureas as inhibitors of alzheimer's β-amyloid production” (The Brigham and Women's Hospital, Inc., priority 2000, dated 2004)

Legend:
[1] = system: Aβ42 production; assay: Inhibition of Aβ42 production in APP-transfected cells, ELISA (Example 2); format: cell-based; conditions: 4 hours, compared with total Aβ, FIG. 2
Source text: (§1) Cell Lines, Compound Treatments, and ELISAs. Cell lines were Chinese hamster ovary (CHO) and SK-N-SH human neuroblastoma cells stably transfected with the 751- or 695-amino acid splicing variants of APP, respectively, and the neo gene, and human embryonic kidney (HEK) 293 cells carrying the same genes (APP695 plus neo) but with the K595N/M596L (“Swedish”) double mutation of APP. Xia W et al., J Biol Chem 272:7977-7982 (1997); Citron M et al., Proc Natl Acad Sci USA 93:13170-13175 (1996). Cells were grown to confluence in Dulbecco's modified Eagle's medium containing 200 μg/ml G418 (Gibco BRL). Stock concentrations of the (hydroxyethyl)urea compounds of the invention in DMSO were added to media to reach the final concentrations with 1% DMSO. Positive controls contained 1% DMSO alone. […] The reporter antibody was detected using 3,3′,5,5′-tetramethylbenzidine (Pierce), measuring at 455 nm for calculating Aβ levels and at 595 nm for normalization.
(§2) Compound III-20 (shown above) or compound III-24 (identical to III-20 except R4 is L-phenylalanine O-methyl ester) was added over a range of concentrations (0.1-100 μM) to APP-transfected cells in culture as described. […] After 4 hours in culture, supernatants from test and control cultures were assayed by ELISA specific for Aβ peptides, and results were analyzed as percent total or specific Aβ produced compared to control.

[2] = system: total Aβ peptide production; assay: Inhibition of total Aβ peptide production in APP-transfected cells, ELISA (Example 2); format: cell-based; conditions: 4 hours in culture, FIG. 1, read-out: concentration for 50 percent inhibition of total Aβ peptide production
Source text: as §1, §2

[3] = system: Aβ production in APP751-plus neo-transfected CHO cells; assay: Inhibition of Aβ production in APP751-plus neo-transfected CHO cells, ELISA (Example 3); format: cell-based, Chinese hamster; conditions: Cricetulus griseus, 4 hours, 0.005 to 100 μM, 1% DMSO
Source text: Cell Lines, Compound Treatments, and ELISAs. Cell lines were Chinese hamster ovary (CHO) and SK-N-SH human neuroblastoma cells stably transfected with the 751- or 695-amino acid splicing variants of APP, respectively, and the neo gene, and human embryonic kidney (HEK) 293 cells carrying the same genes (APP695 plus neo) but with the K595N/M596L (“Swedish”) double mutation of APP. Xia W et al., J Biol Chem 272:7977-7982 (1997); Citron M et al., Proc Natl Acad Sci USA 93:13170-13175 (1996). Cells were grown to confluence in Dulbecco's modified Eagle's medium containing 200 μg/ml G418 (Gibco BRL). Stock concentrations of the (hydroxyethyl)urea compounds of the invention in DMSO were added to media to reach the final concentrations with 1% DMSO. Positive controls contained 1% DMSO alone. […] The reporter antibody was detected using 3,3′,5,5′-tetramethylbenzidine (Pierce), measuring at 455 nm for calculating Aβ levels and at 595 nm for normalization. […]
Transfected CHO cells were prepared and maintained as described in Example 2. […] Results were plotted as percent control Aβ produced versus (hydroxyethyl)urea compound concentration (μM), and (hydroxyethyl)urea compound concentrations at which production was inhibited by 50 percent (IC50) were determined.

With `COC(=O)[C@H](CC(C)C)NC(=O)[C@H](CC(C)C)NC(=O)N(Cc1ccccc1)C[C@@H](O)[C@H](Cc1ccccc1)NC(=O)OC(C)(C)C` [FΨFLL] the “inhibitory effect on the production of Aβ42” value [1] was “closely followed the inhibition by compound III-20 of total Aβ production”, the IC50 [2] was about 1000 nM and the IC50 [3] was 500 nM.
